Test results from US20080146633A1, “COMPOSITIONS FOR SKIN LIGHTENING AND TONING DOWN PIGMENT DISORDERS, COMPRISING CREATININE AND/OR CREATININE DERIVATIVES AS ACTIVE SUBSTANCES” (GOLDSCHMIDT GMBH, priority 2002, published 2008).

Experiments:
fungi tyrosinase = assay: Tyrosinase inhibition (L-Dopa to dopachrome, absorption at 475 nm); assay type: biochemical; conditions: 15 min at room temperature
Experimental: The inhibition of fungi tyrosinase was determined as a function of different concentrations of creatinine (0.05 to 1.7% by volume) by reference to the enzymatic reaction of L-Dopa to dopachrome. The absorption maximum of the dopachrome is at a wavelength of 475 nm. The tyrosinase inhibition is calculated in accordance with the following equation:
Inhibition [%]={100−[(Esample*100)/Ereference]} (1)
each measurement was carried out in duplicate, with parallel mixtures. The variation of the method is ±10%,
25 mM acetate buffer (pH 4.9): dilute from 0.2 M acetate buffer (pH 4.9) (Sigma) Phosphate buffer (pH 7): Titrosol (Merck) 20 mM L-DOPA (in acetate buffer) Tyrosinase stock solution: 40 U/ml of phosphate buffer Stock solution of creatinine: 0.45 M in phosphate buffer
The DOPA solution and the tyrosinase stock solution were prepared only prior to the start of the experiment. The L-DOPA solutions should be stored in a dark place and in vessels which can be sealed tightly.
500 μL of DOPA stock solution 400 μL of creatinine solution or phosphate buffer (reference) 100 μL of tyrosinase stock solution Following the addition of the enzyme, the samples were thoroughly mixed using a “Reax Top” (Heidolph). Following an incubation period of 15 min at room temperature, the absorption at 475 nm was determined. The measurement was carried out using a “Helios Beta” spectrophotometer from Unicam.

[1] = test system: MelanoDerm in vitro skin model (melanocytes); assay: In vitro skin model test (MelanoDerm), melanin determined quantitatively; assay type: cell-based; conditions: for Melanin: applied every 48 hours
Source text: The skin-lightening effect was validated on an in vitro skin model, the MelanoDerm™ from MatTek. This model is very similar in structure and function to the natural skin and has the cell types relevant in the epidermis including the melanocytes, which are responsible for the synthesis of the main pigment melanin. Further information can be found, for example, in M. K. King et al. in Proceedings of Society of Cosmetic Chemists Annual Scientific Meeting and Technology Showcase 1998, 35-36. Creatinine, kojic acid dipalmitate as positive standard and water as negative control were applied every 48 hours over a period of 21 days to the in vitro skin model.
The melanin produced by the melanocytes was determined quantitatively on the 17th and 21st day.

SMILES	Tyrosinase inhibition (%) (fungi tyrosinase; creatinine 0.05 % by volume)	Tyrosinase inhibition (%) (fungi tyrosinase; creatinine 0.30 % by volume)	Tyrosinase inhibition (%) (fungi tyrosinase; creatinine 0.60 % by volume)	Tyrosinase inhibition (%) (fungi tyrosinase; creatinine 0.90 % by volume)	Tyrosinase inhibition (%) (fungi tyrosinase; creatinine 1.10 % by volume)	Tyrosinase inhibition (%) (fungi tyrosinase; creatinine 1.40 % by volume)	Tyrosinase inhibition (%) (fungi tyrosinase; creatinine 1.70 % by volume)	Melanin ([1]; Day 17) [µg]	Melanin ([1]; Day 21) [µg]	Effectiveness compared with kojic acid dipalmitate (positive standard) ([1]; upon prolonged application)
CN1CC(=O)NC1=N [Creatinine, 2-imino-N-methylhydantoin]	1.77	9.97	14.21	20.75	24.81	28.15	32.18	94.5	12.67	twice as effective
CCCCCCCCCCCCCCCC(=O)OCc1cc(=O)c(OC(=O)CCCCCCCCCCCCCCC)co1 [Kojic dipalmitate, kojic acid dipalmitate, reference compound]								102.5	82.67	
